According to patent US10076511B2, “Bisamide derivative of dicarboxylic acid as an agent for stimulating tissue regeneration and recovery of diminished tissue function” (TREAMID GmbH, priority 2015, dated 2018):
Marks after values point to notes of the source that are not given here.

How the values were obtained:
male Wistar rats = experiment: Pair-test of sexual behavior, copulatory activity reduced by Synestrol; assay type: in vivo, rat
Method: Reduction of copulatory activity caused by androgen deficiency was simulated by administration of Synestrol to male rats.
The model is based on the antagonism of androgenic and estrogenic hormones. The administration of Synestrol to male rats leads to the suppression of the sexual activity in animals.
Experiments were performed on 36 male Wistar rats (3 months of age). For 30 days after the beginning of the experiment, all male rats (except for the intact group (background)) were intramuscularly injected with Synestrol at a dose of 50 U/kg/day. Further, from Day 31 to Day 45 of the experiment, animals of the experimental groups, in addition to Synestrol, were intraperitoneally administered Treamid at a dose of 1.5 mg/kg and reference preparation Tribestan at a dose of 70 mg/kg. The sexual activity was estimated by the pair-test of sexual behavior. For this purpose, female rats in the estrus stage caused by a preliminary 4-fold injection of Synestrol were involved in the experiment. The effectiveness of Treamid was estimated by the following indices: latency until the first mating attempt (LFM), the number of mating attempts (mounts), and the number of ejaculations. The obtained data were compared with those of the same animals before the experiment (the first test) and with the data in the control group (the second test).

male C57BL/6 mice = experiment: Streptozotocin-induced pancreatic lesion model; assay type: in vivo, mouse; parameters: The number of piconized cells per islet (pixel): unit not given here
Method: The study was performed on male C57BL/6 mice of 4 week old. Pancreatic damage was induced by intraperitoneal injection of streptozotocin at a dose of 40 mg/kg in 0.25 ml of phosphate buffer every day for 5 days [Szkudelski T. The Mechanism of Alloxan and Streptozotocin Action in B Cells of the Rat Pancreas//Physiological Research.—2001.—Vol. 50.—P. 536-546].
Treamid at a dose of 1 mg/kg was administered daily intragastrically once daily on Days 7-20 of the study.
On Days 0, 6, 10, 13, 16, 19, 21, 24, and 28 of the study, blood glucose was determined. The blood glucose level was determined after four-hour deprivation of feed with a glucometer (SencoCard glucometer, “77 Electronics Kft”, Hungary).
On Day 28 of the study, the animals were euthanized in a CO2 chamber, the pancreas was subjected to a morphological examination, and the pancreatic homogenate was studied on an enzyme-linked immunosorbent assay for common collagen and type I collagen.
For morphological study, a part of the pancreas adjacent to the spleen was fixed in 10% formalin and poured into paraffin. Deparaffined sections of the gland were stained with hematoxylin and eosin. On the sections, the area of 10 serial islets of Langerhans was determined by graphic computer analysis, and the total number of cells and the number of pyknotized cells were counted therein. Then, the number of cells per unit islet area and the percentage of the pyknotized cells were calculated.
Inflammatory cells (neutrophils, lymphocytes, macrophages) in the pancreatic tissue and their composition were studied by staining of the histological sections with hematoxylin-eosin and azur-eosin.
The level of mouse type I collagen in a […] was determined by enzyme-linked immunosorbent assay (Cusabio Biotech CO., LTD, China). The lung tissue homogenate was prepared according to the protocol of the manufacturer, Cusabio Biotech CO., LTD (China).
The level of the total collagen in the lung homogenate was determined by using a SIRCOL Collagen Assay kit (Biocolor Ltd, UK) for determining collagen by binding it to a dye and treating with an acid and a solution of pepsin, according to the manufacturer's instructions. The lung tissue homogenate was prepared according to the protocol of manufacturer's test system.

male CBA/CaLac mice = experiment: Chronic toxic hepatitis model (CCl4), liver histology; assay type: in vivo, mouse; conditions: Day 28; Treamid 10 mg/kg intragastrically Day 14-27
Method: Chronic toxic hepatitis was induced in the male CBA/CaLac mice by intragastric administration of a 20% carbon tetrachloride (CCl4) solution in olive oil in a volume of 0.2 ml/mouse on Days 0, 3, 7, 10, 14, and 17 of the study. Treamid was administered at a dose of 10 mg/kg intragastrically once daily, every day from Day 14 to Day 27 of the study. On day 28, the animals were euthanized in a CO2 chamber and a liver biopsy sample was taken for histological analysis.
For histological examination, the liver was fixed in a 10% neutral formalin solution and then poured into paraffin by the standard method. Deparaffined sections of a thickness of 5 μm were stained: 1) with hematoxylin and eosin according to the standard procedure for routine histological examination; and 2) with picrofuxin for the calculation of the area of connective tissue, using a graphic data processing software.

[1] = First test, Synestrol-treated rats
[2] = Second test, Treamid 1.5 mg/kg or Tribestan 70 mg/kg intraperitoneally Day 31-45

## O=C(CCCC(=O)NCCc1ncc[nH]1)NCCc1ncc[nH]1 [Treamid]
Male Wistar rats; [1]
  Ejaculating animals, %: 0.00%#
  LFM: 373.89 ± 112.89 s
  The number of mounts, abs.: 5.89 ± 1.91 abs.
Male Wistar rats; [2]
  LFM: 381.22 ± 115.18 s
  The number of mounts, abs.: 8.00 ± 3.12 abs.
Male C57BL/6 mice; Day 28, Treamid 1 mg/kg
  The area of the islet tissue (pixel): 635770 ± 56163• pixel
  The number of piconized cells per islet (pixel): 1.75 ± 0.14
  The total number of cells in the islet of Langerhans (×10^4): 109.9 ± 12.6• ×10^4
Male C57BL/6 mice; Initial level
  blood glucose level (mM/L): 5.1 ± 0.1 mM/L
Male C57BL/6 mice; day 6 after the last administration of streptozotocin (before Treamid, given Days 7-20)
  blood glucose level (mM/L): 10.8 ± 0.4 mM/L
Male C57BL/6 mice; day 10, Treamid 1 mg/kg intragastrically Days 7-20
  blood glucose level (mM/L): 11.2 ± 0.2 mM/L
Male C57BL/6 mice; day 13, Treamid 1 mg/kg intragastrically Days 7-20
  blood glucose level (mM/L): 11.6 ± 0.3*• mM/L
Male C57BL/6 mice; day 16, Treamid 1 mg/kg intragastrically Days 7-20
  blood glucose level (mM/L): 10.4 ± 1.4 mM/L
Male C57BL/6 mice; day 19, Treamid 1 mg/kg intragastrically Days 7-20
  blood glucose level (mM/L): 12.0 ± 0.1 mM/L
Male C57BL/6 mice; day 21, Treamid 1 mg/kg intragastrically Days 7-20
  blood glucose level (mM/L): 12.1 ± 0.4*• mM/L
Male C57BL/6 mice; day 24, Treamid 1 mg/kg intragastrically Days 7-20
  blood glucose level (mM/L): 12.2 ± 1.0*• mM/L
Male C57BL/6 mice; day 28, Treamid 1 mg/kg intragastrically Days 7-20
  blood glucose level (mM/L): 12.6 ± 1.1 mM/L
Male CBA/CaLac mice
  content of connective tissue in the liver compared to the pathological control: markedly reduced
  histological pattern of the liver: did not differ from that of the intact control
